Experimental findings from patent US9844536B2, “3-(1H-imidazo[4,5-C]pyridin-2-yl)-1H-pyrazolo[3,4-C]pyridine and therapeutic uses thereof” (Samumed, LLC, priority 2014, dated 2017) are described below.

In experiment [1] the test system is Wnt pathway (Sp5-Luc reporter, SW480 cells). In words: Sp5-Luc reporter gene screening assay for Wnt activity in SW480 colon carcinoma cells. It counts as cell-based. To be noted: Homo sapiens. The text has this: The screening assay for Wnt activity is described as follows. Reporter cell lines can be generated by stably transducing cancer cell lines (e.g., colon cancer) or primary cells (e.g., IEC-6 intestinal cells) with a lentiviral construct that includes a Wnt-responsive promoter driving expression of the firefly luciferase gene.
SW480 colon carcinoma cells were transduced with a lentiviral vector expressing luciferase with a human Sp5 promoter consisting of a sequence of eight TCF/LEF binding sites. SW480 cells stably expressing the Sp5-Luc reporter gene and a hygromycin resistance gene were selected by treatment with 150 μg/ml of hygromycin for 7 days. These stably transduced SW480 cells were expanded in cell culture and used for all further screening activities. For Sp5-Luc reporter gene assays, the cells were plated at 10,000 cells/well in 96-well plates with growth medium containing 10% fetal calf serum and incubated overnight at 37° C. and 5% CO2. Each compound was dissolved in DMSO as a 10 mM stock in standard j-vials and used to prepare compound source plates in dose-response format with 3-fold serial dilutions and a 10 mM top concentration. Compound transfer from serially diluted source plates to assay plates containing the cells was accomplished using a pintool (Multimek 96, Beckman equipped with V&P Scientific FP1S50H pins) based liquid handling protocol. This protocol used a slotted pin to transfer 50 nl of compound from a source plate well to an assay plate well containing 50 μl of cells in growth medium. […] Control wells received 50 nl of DMSO treatment for normalization and calculating IC50 values. The treated cells were incubated at 37° C. and 5% CO2 for an additional forty-two hours. Following incubation, the growth medium was removed and 50 μl of BrightGlo luminescence reagent (Promega) was added to each well of the 96-well assay plates. The plates were placed on an orbital shaker for 5 min and then luminescence was quantified on the Victor3 (Perkin Elmer) plate reader. Readings were normalized to DMSO only treated cells, and normalized activities were utilized for IC50 calculations using the dose-response log (inhibitor) vs. response-variable slope (four parameters) nonlinear regression feature available in GraphPad Prism 5.0 or 6.0.

Experiment [2] has as its system LL29 cells. The experiment can be described thus: Inhibition of the fibrotic process (αSMA staining) in TGF-β1 treated primary human fibroblasts from IPF patients. To be noted: Fibroblast, 96 h, TGF-β1 20 ng/mL, 4 days, dose-response 10 μM to 1.87 nM, read-out: Inhibition of fibrosis EC50. It counts as cell-based. The source says:
The above synthesized compounds were screened using primary human fibroblasts (derived from IPF patients) treated with TGF-β1 to determine their ability to inhibit the fibrotic process.
Primary human fibroblasts derived from IPF patients (LL29 cells) [^1Xiaoqiu Liu, et. al., “Fibrotic Lung Fibroblasts Show Blunted Inhibition by cAMP Due to Deficient cAMP Response Element-Binding Protein Phosphorylation”, Journal of Pharmacology and Experimental Therapeutics (2005), 315(2), 678-687; ^2Watts, K. L., et. al., “RhoA signaling modulates cyclin D1 expression in human lung fibroblasts; implications for idiopathic pulmonary fibrosis”, Respiratory Research (2006), 7(1), 88] were obtained from American Type Culture Collection (ATCC) and expanded in F12 medium supplemented with 15% Fetal Bovine Serum and Penicillin/Streptomycin.
Each compound was dissolved in DMSO as a 10 mM stock and used to prepare compound source plates. Serial dilution (1:2, 11-point dose-response curves from 10 μM to 1.87 nM) and compound transfer was performed using the ECHO 550 (Labcyte, Sunnyvale, Calif.) into 384-well clear bottom assay plates (Greiner Bio-One) with appropriate DMSO backfill for a final DMSO concentration of 0.1%. LL29 cells were plated at 1,500 cells/well in 80 μl/well F12 medium supplemented with 1% Fetal Bovine Serum. One hour after addition of the cells, TGF-β1 (Peprotech; 20 ng/mL) was added to the plates to induce fibrosis (ref. 1 and 2 above). Wells treated with TGF-β1 and containing DMSO were used as controls. Cells were incubated at 37° C. and 5% CO2 for 4 days. Following incubation for 4 days, SYTOX green nucleic acid stain (Life Technologies [Thermo Fisher Scientific]) was added to the wells at a final concentration of 1 uM and incubated at room temperature for 30 min. Cells were then fixed using 4% formaldehyde (Electron Microscopy Sciences), washed 3 times with PBS followed by blocking and permeabilization using 3% Bovine Serum Albumin (BSA; Sigma) and 0.3% Triton X-100 (Sigma) in PBS. Cells were then stained with antibody specific to α-smooth muscle actin (αSMA; Abcam) (ref. 1 and 2 above) in 3% Bovine Serum Albumin (BSA; Sigma) and 0.3% Triton X-100 (Sigma) in PBS, and incubated overnight at 4° C. Cells were then washed 3 times with PBS, followed by incubation with Alexa Flor-647 conjugated secondary antibody (Life Technologies [Thermo Fisher Scientific]) and DAPI at room temperature for 1 hour. Cells were then washed 3 times with PBS and plates were sealed for imaging. αSMA staining was imaged by excitation at 630 nm and emission at 665 nm and quantified using the Compartmental Analysis program on the CellInsight CX5 (Thermo Scientific). Dead or apoptotic cells were excluded from analysis based on positive SYTOX green staining. % of total cells positive for αSMA were counted in each well and normalized to the average of 11 wells treated with TGF-31 on the same plate using Dotmatics' Studies Software. The normalized averages (fold change over untreated) of 3 replicate wells for each compound concentration were used to create dose-responses curves and EC50 values were calculated using non-linear regression curve fit in the Dotmatics' Studies Software. The EC50 values are reported.

Usually IC50 stands for the concentration at which inhibition is half-maximal. Low readings indicate greater potency in that assay, high ones weaker potency in that assay. The term EC50 denotes the concentration giving half of the maximal effect.

Each structure is given as a SMILES string.

The compound `CN(C)c1cncc(-c2cc3c(-c4nc5c(-c6cccc(F)c6)nccc5[nH]4)n[nH]c3cn2)c1` [Compound 7, 5-(3-(4-(3-Fluorophenyl)-1H-imidazo[4,5-c]pyridin-2-yl)-1H-pyrazolo[3,4-c]pyridin-5-yl)-N,N-dimethylpyridin-3-amine] gave an IC50 in experiment [1] of 11.4 nM. Further, the EC50 in experiment [2] is no more than 9 nM.
For `CN(C)Cc1cncc(-c2cc3c(-c4nc5c(-c6cccc(F)c6)nccc5[nH]4)n[nH]c3cn2)c1` [Compound 13, 1-(5-(3-(4-(3-Fluorophenyl)-1H-imidazo[4,5-c]pyridin-2-yl)-1H-pyrazolo[3,4-c]pyridin-5-yl)pyridin-3-yl)-N,N-dimethylmethanamine] the same measures were 157 nM and 1660 nM.
Regarding `O=C(Nc1cncc(-c2cc3c(-c4nc5c(-c6cccc(F)c6)nccc5[nH]4)n[nH]c3cn2)c1)C1CC1` [Compound 19, N-(5-(3-(4-(3-Fluorophenyl)-1H-imidazo[4,5-c]pyridin-2-yl)-1H-pyrazolo[3,4-c]pyridin-5-yl)pyridin-3-yl)cyclopropanecarboxamide], the IC50 in experiment [1] turned out to be 25.6 nM. In addition, in experiment [2], the EC50 is no more than 9 nM.
The corresponding values for `Fc1cccc(-c2nccc3[nH]c(-c4n[nH]c5cnc(-c6cncc(CN7CCC(F)(F)C7)c6)cc45)nc23)c1` [Compound 25, 5-(5-((3,3-Difluoropyrrolidin-1-yl)methyl)pyridin-3-yl)-3-(4-(3-fluorophenyl)-1H-imidazo[4,5-c]pyridin-2-yl)-1H-pyrazolo[3,4-c]pyridine] are 30.8 nM and 185 nM.
The corresponding values for `CC(C)CC(=O)Nc1cncc(-c2cc3c(-c4nc5c(-c6ccc(F)cc6)nccc5[nH]4)n[nH]c3cn2)c1` [Compound 28, N-(5-(3-(4-(4-Fluorophenyl)-1H-imidazo[4,5-c]pyridin-2-yl)-1H-pyrazolo[3,4-c]pyridin-5-yl)pyridin-3-yl)-3-methylbutanamide] are 174 nM and 553 nM.
In experiment [1], `CC(C)(C)C(=O)Nc1cncc(-c2cc3c(-c4nc5c(-c6ccc(F)cc6)nccc5[nH]4)n[nH]c3cn2)c1` [Compound 34, N-(5-(3-(4-(4-Fluorophenyl)-1H-imidazo[4,5-c]pyridin-2-yl)-1H-pyrazolo[3,4-c]pyridin-5-yl)pyridin-3-yl)pivalamide] showed an IC50 of 50.9 nM. Further, in experiment [2], the 50% effective concentration (EC50) came out at 515 nM.
The corresponding values for `Fc1ccc(-c2nccc3[nH]c(-c4n[nH]c5cnc(-c6cncc(CN7CCCC7)c6)cc45)nc23)cc1` [Compound 40, 3-(4-(4-Fluorophenyl)-1H-imidazo[4,5-c]pyridin-2-yl)-5-(5-(pyrrolidin-1-ylmethyl)pyridin-3-yl)-1H-pyrazolo[3,4-c]pyridine] are greater than 10000 nM and no less than 9990 nM.
For the compound `O=C(Nc1cncc(-c2cc3c(-c4nc5c(-c6ccc(F)cc6)nccc5[nH]4)n[nH]c3cn2)c1)C1CCC1` [Compound 46, N-(5-(3-(4-(4-Fluorophenyl)-1H-imidazo[4,5-c]pyridin-2-yl)-1H-pyrazolo[3,4-c]pyridin-5-yl)pyridin-3-yl)cyclobutanecarboxamide], 61 nM corresponded to half-maximal inhibition in experiment [1] (IC50). In addition, in experiment [2], the EC50 is no more than 9 nM.
Turning to `Fc1ccc(-c2nccc3[nH]c(-c4n[nH]c5cnc(-c6cncnc6)cc45)nc23)cc1` [Compound 52, 3-(4-(4-Fluorophenyl)-1H-imidazo[4,5-c]pyridin-2-yl)-5-(pyrimidin-5-yl)-1H-pyrazolo[3,4-c]pyridine], the concentration for half-maximal inhibition (IC50) in experiment [1] was determined as 74.1 nM. In addition, the EC50 in experiment [2] was found to be 44 nM.
`CC(C)(C)C(=O)Nc1cncc(-c2cc3c(-c4nc5c(-c6ccccc6F)nccc5[nH]4)n[nH]c3cn2)c1` [Compound 60, N-(5-(3-(4-(2-Fluorophenyl)-1H-imidazo[4,5-c]pyridin-2-yl)-1H-pyrazolo[3,4-c]pyridin-5-yl)pyridin-3-yl)pivalamide] showed an IC50 in experiment [1] of 115 nM. Further, the EC50 in experiment [2] is 878 nM.
Regarding `CC(C)C(=O)Nc1cncc(-c2cc3c(-c4nc5c(-c6ccccc6F)nccc5[nH]4)n[nH]c3cn2)c1` [Compound 61, N-(5-(3-(4-(2-Fluorophenyl)-1H-imidazo[4,5-c]pyridin-2-yl)-1H-pyrazolo[3,4-c]pyridin-5-yl)pyridin-3-yl)isobutyramide], the IC50 in experiment [1] amounted to 192 nM. The EC50 in experiment [2] turned out to be 153 nM.
The corresponding values for `O=C(Nc1cncc(-c2cc3c(-c4nc5c(-c6ccccc6F)nccc5[nH]4)n[nH]c3cn2)c1)C1CCCC1` [Compound 73, N-(5-(3-(4-(2-Fluorophenyl)-1H-imidazo[4,5-c]pyridin-2-yl)-1H-pyrazolo[3,4-c]pyridin-5-yl)pyridin-3-yl)cyclopentanecarboxamide] are 264 nM and 534 nM.
In turn, `CC(C)C(=O)Nc1cncc(-c2cc3c(-c4nc5c(-c6cccnc6)nccc5[nH]4)n[nH]c3cn2)c1` [Compound 87, N-(5-(3-(4-(Pyridin-3-yl)-1H-imidazo[4,5-c]pyridin-2-yl)-1H-pyrazolo[3,4-c]pyridin-5-yl)pyridin-3-yl)isobutyramide] showed a 50% inhibitory concentration (IC50) in experiment [1] greater than 10000 nM. In addition, the EC50 in experiment [2] was no less than 9990 nM.
As to `CC(C)Nc1cncc(-c2cc3c(-c4nc5c(-c6cccnc6)nccc5[nH]4)n[nH]c3cn2)c1` [Compound 90, N-Isopropyl-5-(3-(4-(pyridin-3-yl)-1H-imidazo[4,5-c]pyridin-2-yl)-1H-pyrazolo[3,4-c]pyridin-5-yl)pyridin-3-amine], the IC50 in experiment [1] is 11.2 nM. The EC50 in experiment [2] is no more than 9 nM.
Take `Cc1ccncc1-c1cc2c(-c3nc4c(-c5ccncc5)nccc4[nH]3)n[nH]c2cn1` [Compound 109, 5-(4-Methylpyridin-3-yl)-3-(4-(pyridin-4-yl)-1H-imidazo[4,5-c]pyridin-2-yl)-1H-pyrazolo[3,4-c]pyridine]: in experiment [1], the IC50 was determined as 114 nM. In addition, in experiment [2], the EC50 was no less than 9990 nM.
For `CCCC(=O)Nc1cncc(-c2cc3c(-c4nc5c(-c6ccncc6)nccc5[nH]4)n[nH]c3cn2)c1` [Compound 121, N-(5-(3-(4-(Pyridin-4-yl)-1H-imidazo[4,5-c]pyridin-2-yl)-1H-pyrazolo[3,4-c]pyridin-5-yl)pyridin-3-yl)butyramide] the same measures were greater than 10000 nM and no less than 9990 nM.
The corresponding values for `CC(C)CC(=O)Nc1cncc(-c2cc3c(-c4nc5c(-c6ccccn6)nccc5[nH]4)n[nH]c3cn2)c1` [Compound 132, 3-Methyl-N-(5-(3-(4-(pyridin-2-yl)-1H-imidazo[4,5-c]pyridin-2-yl)-1H-pyrazolo[3,4-c]pyridin-5-yl)pyridin-3-yl)butanamide] are 198 nM and 685 nM.
